The nature of series [1]: In vitro liver microsomal stability assay. Format: in vitro ADME. The following applies: human liver microsomes 0.5 mg/mL, 1 μM compound, 37° C., NADPH-generating system, compared with non isotopically enriched rolofylline, '+' marks one bin of −25%-0%, 0%-50%, 50%-150%. As for the experimental part: Liver microsomal stability assays were conducted at 0.5 mg per mL liver microsome protein with an NADPH-generating system in 2% NaHCO3 (2.2 mM NADPH, 25.6 mM glucose 6-phosphate, 6 units per mL glucose 6-phosphate dehydrogenase and 3.3 mM MgCl2). Test compounds were prepared as solutions in 20% acetonitrile-water and added to the assay mixture (final assay concentration 1 μM) and incubated at 37° C. Final concentration of acetonitrile in the assay should be <1%. […] were taken out at times 0, 7.5, 15, 22.5, 30 minutes, and diluted with ice cold acetonitrile (200 μL) to stop the reactions. Samples were centrifuged at 12,000 RPM for 10 min to precipitate proteins. Supernatants were transferred to micro centrifuge tubes and stored for LC/MS/MS analysis of the degradation half-life of the test compounds. […] The degradation half-lives of Examples 1 through 4 (isotopically enriched compounds) as compared with non isotopically enriched rolofylline are shown in Table 1.

Series [2] relates to acute heart failure patients. The following applies: cited from earlier work.
[3] abbreviates: rolofylline 30 mg daily for 3 days.

Regarding `[2H]C([2H])([2H])C([2H])([2H])C([2H])([2H])n1c(=O)c2[nH]c(C34CC5CC(CC3C5)C4)nc2n(C([2H])([2H])C([2H])([2H])C([2H])([2H])[2H])c1=O` [Example 2, 8-(Noradamantyl)-1-(d7-propyl)-3-(d7-propyl)-3,7-dihydro-purine-2,6-dione], the “% increase of HLM degradation half-life” value in series [1] is given as “+ (−25%-0%)”.

In the case of `[2H]C([2H])(CC)n1c(=O)c2[nH]c(C34CC5CC(CC3C5)C4)nc2n(CCC)c1=O` [Example 3, 8-(Noradamantyl)-1-(1,1-d2-propyl)-3-propyl-3,7-dihydro-purine-2,6-dione], the “% increase of HLM degradation half-life” value in series [1] is recorded as “+ (−25%-0%)”. The same measure, in the same setting: the same measure for `[2H]C([2H])([2H])C([2H])([2H])C([2H])([2H])n1c(=O)n(CCC)c(=O)c2[nH]c(C34CC5CC(CC3C5)C4)nc21` [Example 1, 8-(Noradamantyl)-1-propyl-3-(d7-propyl)-3,7-dihydro-purine-2,6-dione]: “+ (−25%-0%)”. With `CCCn1c(=O)c2[nH]c(C34CC5CC(CC3C5)C4)nc2n(CCC)c1=O` [Rolofylline, 8-(hexahydro-2,5-methano-pentalen-3a-yl)-1,3-dipropyl-3,7-dihydro-purine-2,6-dione], in series [2] (acute heart failure patients, 6 hours), the “urine output at 6 hours” value is “increased urine output at 6 hours”. The “overall urine output over 24 hours” value in series [2] (acute heart failure patients, 24 hours) is “did not increase overall urine output over 24 hours”. In addition, the “patients with persistent renal impairment” value in series [2] (rolofylline 30 mg daily for 3 days, acute heart failure patients) is given as 8%. In series [2] (setting [3]), the “dyspnea improvement versus placebo” value is “superior to placebo” and the “instances of death, heart failure readmission, worsening heart failure or persistent renal impairment versus placebo” value was “less instances”. Turning to `[2H]C([2H])([2H])C([2H])([2H])C([2H])([2H])n1c(=O)c2[nH]c(C34CC5CC(CC3C5)C4)nc2n(CCC)c1=O` [Example 4, 8-(Noradamantyl)-1-(d7-propyl)-3-propyl-3,7-dihydro-purine-2,6-dione], the “% increase of HLM degradation half-life” value in series [1] was “+ (−25%-0%)”.

The values are drawn from patent US20100075935A1, “XANTHINE MODULATORS OF ADENOSINE A1 RECEPTOR” (Auspex Pharmaceuticals, Inc., priority 2008, published 2010).
